Data: paper PMC4259358, “Functional Characterization of Nuclear Localization and Export Signals in Hepatitis C Virus Proteins and Their Role in the Membranous Web” (PLoS ONE, 2014)
Ends that are not written are not given here.

Tests used:
[1] = test system: interaction of core, NS3, or NS5A with IPO5; test: Peptide competition of HCV protein-NTF interaction (ELISA in-vitro, Co-IP in cell culture); type: biochemical; settings: ELISA with 100 µM peptide and Co-IP of V5 tagged HCV proteins; n = 3
Protocol: (§1) To examine the specificity of the interactions between HCV proteins and NTFs, we examined the ability of each putative NLS or NES peptide identified in Fig. 1 to disrupt the interaction between the HCV protein and the NTF, using an ELISA in-vitro and co-immunoprecipitation (Co-IP) in cell culture assays (Fig. 3, S3 and S4 Figure). The ELISA plates were coated with HCV proteins while NTFs and competitive peptides were added, and the fraction of bound NTF was measured using NTF specific antibodies. The Co-IP was conducted by expression of V5 tagged HCV proteins in the presence of competing peptides, followed by immunoprecipitation with V5 specific antibody and immunoblotting with specific NTF antibodies.
(§2) Figure 3 Analysis of HCV protein binding to NTFs in the presence of NLS and NES peptides. ELISA plates were coated with HCV proteins and the relative binding of the different NTFs was monitored by ELISA in the presence of 100 µM of the indicated peptide. For the Co-IP study, cells were transfected by plasmid encoding to V5 tagged HCV proteins and treated by the indicated peptides. After 48 h, cells were lysed and Co-IP using anti V5 antibody and blotted to enable detection of the different NTFs. Western blots were quantified using Multi Gauge v. 3.0. […] The y-axis represents the percentage of NTF bound to the HCV protein; the interaction without the peptide is set to 100%. Error bars represent ± standard deviation, n = 3. The significant difference between the untreated (no peptide) and peptide treated is indicated by: * p<0.05, ** p<0.01, *** p<0.001, **** p<0.0001.
(§3) Protein-peptide and protein-protein binding were estimated using an ELISA-based binding assay as described previously. Briefly, ELISA plates were coated with 200 µl of a 10 µg/ml of synthetic peptide or recombinant protein in a carbonate buffer (0.05 M Na2CO3/0.05 M NaHCO3, pH 9.6) overnight at 4°C. After incubation, the solution was removed, and the plates were washed three times with PBS. […] Each measurement was performed in duplicate.

[2] = test system: core- and NS2-XPO1 interactions; test: as above; type: biochemical; settings: plates coated with HCV protein, 100 µM peptide, n = 3
Protocol: as §1, §2, §3

[3] = test system: interaction of core, NS2, or NS3 with IPOA5; test: as above; type: biochemical; settings: ELISA with 100 µM peptide and Co-IP of V5 tagged HCV proteins; n = 3
Protocol: as §1, §2, §3

IPOA5 = molecular target: T1, IPOA5 (Homo sapiens, UniProt P52294); test: biochemical; type: binding
T1 construct: Expression and purification of full length IPOA5, IPO5 were perform according to methods described previously; His tag; made in house; host or cells: Escherichia coli BL21(DE3), pET21 vector

HEK293T cells = test: Localization of nuclear transport signal-double GFP reporter in HEK293T cells; type: cell-based; parameters: key: +++ for strong; ++ for moderate; + for weak; − for no localization; settings: double GFP cargo, 24 h post transfection, fluorescence quantified with ImageJ (S6, S7 Figures); NES/SEN on SV40 NLS double GFP
Excerpt: To determine whether NTF binding sites found in the HCV proteins were functional nuclear transport signals, we constructed reporter proteins each consisting of one of the HCV proteins NTF binding sites followed by two C-terminal, tandemly repeated GFP molecules. The double GFP moieties were required to keep the reporter from entering the nucleus, since a single GFP is small enough to diffuse freely through NPCs, [35]. As controls, constructs containing the reversed amino-acid residue sequence of the potential NLS (SLN) were also examined using the double GFP reporter assay (S5 Figure). These SLN reporters were predicted to not accumulate in the nucleoplasm. In addition, reporters to examine the functionality of the potential XPO1 binding domains were also constructed. These reporters consist of an SV40 NLS and a double GFP molecule followed by one of the various potential NESs at the C-terminus (S5 Figure). In the absence of a functional NES, this reporter will accumulate in the nucleus. However, a functional NES is predicted to export the reporter, leading to increased steady-state levels of the reporter in the cytoplasm.
Figure 4 Functionality of the putative nuclear transport signals in cells. Cells were transfected by the vectors encoding a nuclear transport reporter consisting of a tandemly repeated double GFP fused to the indicated C-terminal nuclear transport signal (panels A-N). At 24 h following transfection, cells were fixed and stained with Hoechst to visualize the nucleus. Cells were examined using a Zeiss inverted Axiovert 200 M microscope to assess the localization of the GFP (green) and its relationship to the nucleus (blue). A hashed yellow square demarcates the magnified area shown in the right-most image of each panel. Fluorescent intensity was quantified using ImageJ v. […] Analysis of the reverse sequences of each transport signal as well as the mutant SV40 NLS was also performed and the results are shown in S7 Figure.
Nuclear transport signals-double GFP constructs were transfected into HEK293T cells using lipofectamine 2000. At 24 h post transfection cells were fixed, stained, and visualized for localization of the GFP. For detailed information see S1 Methods.
Nuclear transport signal-double GFP constructs were transfected into HEK293T cells using lipofectamine 2000 reagent (Invitrogen, 11668019). At 24 h post transfection cells were fixed with 3.76% formaldehyde at room temperature (Sigma, F8775-500ML) for 8 min then permeabilized in 0.2% Triton X-100 (VWR, CA97062-208) for 2 min. Cells were washed three times with X1 PBS and were stained with Hoechst 1:5000 in X1 PBS for 5 min followed by three washes with X1 PBS. The cells were visualized using a Zeiss inverted Axiovert 200M microscope with a 20x/0.8 objective lens to examine localization of the GFP. At least ten random fields of cells were imaged for each combination. Channels were merged using ImageJ software (National Institutes of Health). Photoshop Elements 10 (Adobe) software was used to adjust brightness and contrast levels for individual images and to assemble images into figures.

JFH-1 HCV [4] = type: cell-based, Hepatitis C virus; settings: for time of addition at which the ability to inhibit HCV infection is lost: Huh7.5, JFH-1, 4 h at 4°C then 37°C, added at 2 h intervals, % NS5A-positive cells at 72 h PTS, Ezetimibe 30 µM, LMB 18 nM, BMS-986094 10 nM, DGAT 1 inhibitor 10 nM, n = 3
Protocol: Huh7.5 cells were infected with JFH-1 HCV and maintained at 4°C for 4 hours (h) to synchronize the cells before shifting the temperature to 37°C. Post temperature shift (PTS), infected cells were incubated for various lengths of times prior to the addition of peptides or known inhibitors of HCV at 2 h intervals. […] We deliberately selected the final time point of 72 h PTS to reflect the number of cells infected by a second round of infection. […] This would be reflected by the number of cells infected in the second round as measured at 72 h PTS.
In order to elucidate the time points in infection when the nuclear transport signals bearing peptides are functional, cells were synchronously infected and treated with the indicated peptides. Each time point (2 h intervals) represents a culture treated with the indicated reagent at the specified time post temperature shift (PTS) and initiation of HCV infection. […] (A) Known inhibitors of HCV production (Ezetimibe (30 µM), LMB (18 nM), BMS-986094 (10 nM) and DGAT 1 inhibitor (10 nM)) and control (Pen peptide 100 µM, DMSO 2%, no treatment, and no infection) were examined. […] Error bars represent ± standard deviation, n = 3.
For the time of addition experiments, cells were seeded at a density of 6.25×10^4 cells/well in a 96-well plate and infected with 0.1 genomic equivalents of serially passaged JFH-1 virus on ice: cells then were incubated at 4°C for 4 h.
Briefly, Huh7.5 cells were infected as described above and the test compounds were added to different wells at different time points before the temperature shift (-4 h and -2 h) and every 2 h after the temperature shift (0, 2, 4,…, 48 h). […] The infection levels were calculated by counting infected and total cells numbers in ten random fields for each condition. The non-treated cell infection level was normalized to 100% and all other infections were calculated based on that normalization.

XPO1 = molecular target: T2, XPO1 (Homo sapiens, UniProt O14980); test: ELISA-based binding assay (Kd(app))
T2 construct: Expression and purification of full length XPO1 were perform according to methods described in a previous publication; His tag; made in house; host or cells: Escherichia coli BL21(DE3), pET21 vector

JFH-1 HCV [5] = settings: literature value; cited from earlier work
Protocol: Ezetimibe is known to inhibit a late stage of HCV entry, and it lost its ability to inhibit HCV infection when added 4–10 h PTS, thus defining the last phase of entry (Fig. 6A). […] In our study, the inhibitory effect of LMB was lost 10–14 hours PTS (Fig. 6A). BMS-986094, an inhibitor of NS5B polymerase, lost its ability to inhibit HCV infection when added 10–24 h PTS, thus defining the period of viral RNA synthesis (Fig. 6A). The ...

IPO5 = molecular target: T3, IPO5 (Homo sapiens, UniProt O00410); test: biochemical; type: binding
T3 construct: Expression and purification of full length IPOA5, IPO5 were perform according to methods described previously; His tag; made in house; host or cells: Escherichia coli BL21(DE3), pET21 vector
T3 sequence (O00410 whole entry): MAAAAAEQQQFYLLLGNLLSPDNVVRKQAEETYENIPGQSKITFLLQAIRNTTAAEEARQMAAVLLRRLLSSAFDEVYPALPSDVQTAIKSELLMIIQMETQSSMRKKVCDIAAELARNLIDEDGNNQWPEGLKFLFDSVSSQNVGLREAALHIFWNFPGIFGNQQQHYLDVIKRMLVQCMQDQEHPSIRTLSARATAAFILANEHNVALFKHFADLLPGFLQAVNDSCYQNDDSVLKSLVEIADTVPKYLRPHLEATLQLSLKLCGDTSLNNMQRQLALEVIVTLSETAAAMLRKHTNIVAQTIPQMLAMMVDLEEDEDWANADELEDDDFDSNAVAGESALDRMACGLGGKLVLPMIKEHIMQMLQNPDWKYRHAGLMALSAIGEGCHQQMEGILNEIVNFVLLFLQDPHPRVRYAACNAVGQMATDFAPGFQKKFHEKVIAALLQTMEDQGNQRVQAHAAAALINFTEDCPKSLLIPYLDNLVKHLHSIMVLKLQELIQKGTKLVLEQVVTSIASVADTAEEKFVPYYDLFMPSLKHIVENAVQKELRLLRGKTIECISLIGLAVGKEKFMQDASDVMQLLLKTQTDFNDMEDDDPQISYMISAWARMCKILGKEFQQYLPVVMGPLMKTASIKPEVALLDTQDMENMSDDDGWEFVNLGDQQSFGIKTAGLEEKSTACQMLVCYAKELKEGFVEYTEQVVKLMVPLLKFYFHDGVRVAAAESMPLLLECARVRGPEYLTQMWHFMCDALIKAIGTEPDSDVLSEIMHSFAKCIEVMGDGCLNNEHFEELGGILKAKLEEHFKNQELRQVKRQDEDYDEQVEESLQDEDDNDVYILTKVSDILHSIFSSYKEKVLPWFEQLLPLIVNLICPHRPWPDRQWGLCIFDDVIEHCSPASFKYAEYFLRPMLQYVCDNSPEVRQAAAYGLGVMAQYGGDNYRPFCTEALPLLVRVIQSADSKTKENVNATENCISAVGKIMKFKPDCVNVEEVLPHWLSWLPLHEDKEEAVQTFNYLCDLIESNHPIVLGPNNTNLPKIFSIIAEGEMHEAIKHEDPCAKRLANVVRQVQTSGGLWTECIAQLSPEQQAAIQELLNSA

T1 sequence (P52294 whole entry): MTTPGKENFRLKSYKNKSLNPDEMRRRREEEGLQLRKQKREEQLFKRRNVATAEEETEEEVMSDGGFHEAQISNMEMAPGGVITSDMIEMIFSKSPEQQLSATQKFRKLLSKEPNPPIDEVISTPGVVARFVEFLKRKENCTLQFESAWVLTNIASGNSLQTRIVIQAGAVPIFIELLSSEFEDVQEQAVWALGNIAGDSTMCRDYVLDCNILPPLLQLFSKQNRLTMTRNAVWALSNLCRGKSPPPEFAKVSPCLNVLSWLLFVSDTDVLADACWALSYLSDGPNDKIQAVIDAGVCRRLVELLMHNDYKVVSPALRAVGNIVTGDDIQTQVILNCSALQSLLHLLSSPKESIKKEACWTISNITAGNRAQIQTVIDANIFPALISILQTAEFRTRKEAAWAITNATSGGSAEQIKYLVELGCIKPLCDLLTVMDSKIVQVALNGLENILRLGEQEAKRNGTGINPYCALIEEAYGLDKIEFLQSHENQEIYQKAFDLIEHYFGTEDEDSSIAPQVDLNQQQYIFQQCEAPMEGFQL
T2 sequence (O14980 whole entry): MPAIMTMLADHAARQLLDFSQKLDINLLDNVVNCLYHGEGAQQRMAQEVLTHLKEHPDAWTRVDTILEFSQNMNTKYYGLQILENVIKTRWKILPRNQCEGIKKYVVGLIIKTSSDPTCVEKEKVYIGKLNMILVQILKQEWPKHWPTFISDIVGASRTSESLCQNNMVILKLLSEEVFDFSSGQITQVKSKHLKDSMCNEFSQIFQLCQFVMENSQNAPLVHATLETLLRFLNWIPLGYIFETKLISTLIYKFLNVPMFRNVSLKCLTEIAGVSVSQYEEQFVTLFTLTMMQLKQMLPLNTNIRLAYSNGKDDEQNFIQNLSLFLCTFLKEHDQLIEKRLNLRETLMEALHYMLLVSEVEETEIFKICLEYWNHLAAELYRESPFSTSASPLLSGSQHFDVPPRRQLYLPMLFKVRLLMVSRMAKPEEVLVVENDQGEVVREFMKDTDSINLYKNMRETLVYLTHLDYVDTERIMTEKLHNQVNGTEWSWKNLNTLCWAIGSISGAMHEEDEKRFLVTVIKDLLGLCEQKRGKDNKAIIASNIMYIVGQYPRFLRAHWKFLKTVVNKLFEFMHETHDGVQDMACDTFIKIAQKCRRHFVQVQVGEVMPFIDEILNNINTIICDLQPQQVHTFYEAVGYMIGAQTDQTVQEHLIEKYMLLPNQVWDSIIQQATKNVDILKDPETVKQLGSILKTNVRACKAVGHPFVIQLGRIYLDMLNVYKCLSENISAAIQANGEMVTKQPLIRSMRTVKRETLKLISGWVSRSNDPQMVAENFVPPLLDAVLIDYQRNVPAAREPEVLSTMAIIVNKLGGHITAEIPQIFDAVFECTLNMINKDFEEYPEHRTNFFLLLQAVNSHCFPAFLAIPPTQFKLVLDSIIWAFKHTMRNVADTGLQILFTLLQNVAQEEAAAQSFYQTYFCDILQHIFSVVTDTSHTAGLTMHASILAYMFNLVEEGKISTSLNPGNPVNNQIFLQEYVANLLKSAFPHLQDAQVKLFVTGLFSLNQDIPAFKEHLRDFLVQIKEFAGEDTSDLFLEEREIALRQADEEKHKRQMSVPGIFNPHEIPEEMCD

PKTKRKVRQIKIWFQNRRMKWKK [SV40 mut NLS, reference compound]
effect of peptide on HCV protein-IPO5 interaction (in words) [1]: do not interfere with IPOA5, IPO5 or XPO1 binding
effect of peptide on HCV protein-XPO1 interaction (in words), ELISA [2]: do not interfere with IPOA5, IPO5 or XPO1 binding
effect of peptide on HCV protein-IPOA5 interaction (in words) [3]: do not interfere with IPOA5, IPO5 or XPO1 binding
binding to IPOA5 (in words) (IPOA5; ELISA, immobilized peptide or HCV protein): does not bind IPOA5
Localization Cytoplasmic (HEK293T cells): +++
Localization Nuclear (HEK293T cells): −

RQIKIWFQNRRMKWKK [Pen]
effect on infection (in words) (JFH-1 HCV [4]; Pen peptide 100 µM, time of addition experiment): had no effect on infection
effect of peptide on HCV protein-IPO5 interaction (in words) [1]: do not interfere with IPOA5, IPO5 or XPO1 binding
effect of peptide on HCV protein-XPO1 interaction (in words), ELISA [2]: do not interfere with IPOA5, IPO5 or XPO1 binding
effect of peptide on HCV protein-IPOA5 interaction (in words) [3]: do not interfere with IPOA5, IPO5 or XPO1 binding

O=C1[C@H](CC[C@H](O)c2ccc(F)cc2)[C@@H](c2ccc(O)cc2)N1c1ccc(F)cc1 [Ezetimibe]
time of addition at which the ability to inhibit HCV infection is lost (JFH-1 HCV [4]): 4–10 h PTS

CC[C@H](C)[C@H](NC(=O)[C@H](CC(C)C)NC(=O)[C@H](CCCNC(=N)N)NC(=O)[C@H](C)NC(=O)[C@H](CC(C)C)NC(=O)[C@H](Cc1ccccc1)NC(=O)[C@H](CC(C)C)NC(=O)[C@H](CCCCN)NC(=O)[C@H](Cc1ccc(O)cc1)NC(=O)[C@H](Cc1c[nH]cn1)NC(=O)[C@@H]1CCCN1C(=O)[C@H](CO)NC(=O)[C@H](CC(C)C)NC(=O)[C@@H](NC(=O)[C@H](CC(C)C)NC(=O)[C@H](CC(C)C)NC(=O)[C@@H](NC(=O)[C@@H](N)CC(C)C)[C@@H](C)CC)[C@@H](C)O)C(=O)N[C@@H](Cc1c[nH]c2ccccc12)C(=O)N[C@@H](Cc1c[nH]c2ccccc12)C(=O)N[C@@H](CC(C)C)C(=O)N[C@@H](CCC(N)=O)C(=O)N[C@@H](Cc1ccc(O)cc1)C(=O)N[C@@H](Cc1ccccc1)C(=O)N[C@H](C(=O)N[C@H](C(=O)N[C@@H](CCCNC(=N)N)C(=O)N[C@@H](CCC(N)=O)C(=O)N[C@H](C(=O)N[C@@H](CCCCN)C(=O)N[C@H](C(=O)N[C@@H](Cc1c[nH]c2ccccc12)C(=O)N[C@@H](Cc1ccccc1)C(=O)N[C@@H](CCC(N)=O)C(=O)N[C@@H](CC(N)=O)C(=O)N[C@@H](CCCNC(=N)N)C(=O)N[C@@H](CCCNC(=N)N)C(=O)N[C@@H](CCSC)C(=O)N[C@@H](CCCCN)C(=O)N[C@@H](Cc1c[nH]c2ccccc12)C(=O)N[C@@H](CCCCN)C(=O)N[C@@H](CCCCN)C(=O)O)[C@@H](C)CC)[C@@H](C)CC)[C@@H](C)O)[C@@H](C)CC [NS2 NES]
Kd (XPO1): 79.9 ± 25.6 nM

CCC(=C/[C@H](C)C/C=C/C(C)=C/[C@@H](C)C(=O)[C@@H](C)[C@H](O)[C@@H](C)C/C(C)=C/C(=O)O)/C=C/[C@@H]1OC(=O)C=C[C@@H]1C [LMB, Leptomycin B]
time at which the inhibitory effect on HCV was lost (JFH-1 HCV [5]): 8 h post infection

PPPRRRRTVRQIKIWFQNRRMKWKK [NS5A NLS]
Kd (IPO5): 32.3 ± 4.99 nM
Kd (IPOA5): 7630 ± 259 nM

COc1nc(N)nc2c1ncn2[C@@H]1O[C@H](COP(=O)(N[C@@H](C)C(=O)OCC(C)(C)C)Oc2cccc3ccccc23)[C@@H](O)[C@@]1(C)O (stereo partly shown) [BMS-986094]
time of addition at which the ability to inhibit HCV infection is lost (JFH-1 HCV [4]): 10–24 h PTS
